Measured values from patent US20120101134A1, “5-MEMBERED HETEROARYL DERIVATIVES USED AS SPHINGOSINE 1-PHOSPHATE RECEPTOR AGONISTS” (GLAXO GROUP LIMITED, priority 2009, published 2012).

How the values were obtained:
[1] = target: T1, human Endothelial Differentiation Gene 1 (EDG1) (Homo sapiens, UniProt P21453); assay: S1P1 Tango assay - 96 well format; format: cell-based; conditions: EDG1-bla/U2OS cells, agonist
T1 construct: TEV protease site; Gal4-VP16 transcription factor; expressed in transfected cells; host or cells: EDG1-bla/U2OS (Tango GPCR-bla U2OS parental cell line)
Description: S1P1 Tango assay—96 Well Format
Recombinant EDG1-bla/U2OS cells (contain the human Endothelial Differentiation Gene 1 (EDG1) linked to a TEV protease site and a Gal4-VP16 transcription factor stably integrated into the Tango GPCR-bla U2OS parental cell line) were suspended in assay medium (Invitrogen Freestyle Expression Medium) at a density of 312, 500 cells/ml. Add 100 μl/well of the assay medium to the cell-free control wells (column 12) and 100 μl/well of the cell suspension to the test compound wells (row 2-8, column 1-10), the unstimulated control wells (DMSO) (column 11), and stimulated control wells (SIP) (row 1, column 1-10) in a Corning black-well, clear bottom 96-well plate. Cells were incubated at 37° C., 5% CO2 for 44-48 h.
Add 25 μl of 5× stock solution of test compounds in assay medium with 0.5% DMSO to the test compound wells, 25 μl of 5× stock solution of agonist (S1P) in assay medium with 0.5% DMSO to the stimulated compound wells, and 25 μl of 5× stock solution of 0.5% DMSO in assay medium to the unstimulated control and cell-free control wells.
After incubation at 37° C., 5% CO2 for 5 h, 25 μl of 6× substrate mixture (6 μl Solution A (1 mg LiveBLAzer™-FRET B/G substrate (CCF4-AM) in 912 μl DMSO) plus 60 μl Solution B plus 934 μl Solution C) was added to each well and incubate at room temperature for 2 h in dark. The plate was finally read on EnVision for two emission channels (460 nm and 530 nm).
All test compounds were dissolved in DMSO at a concentration of 10 mM and were prepared in 100% DMSO using a 1 in 5 dilution step to provide 10 point dose response curves. The dilutions were transferred to the assay plates ensuring that the DMSO concentration was constant across the plate for all assays.
Calculate the blue/green emission ratio (460 nm/530 nm) for each well, by dividing the background-subtracted Blue emission values by the background-subtracted Green emission values. The dose response curve is based on sigmoidal dose-response model. […]

[2] = target: T1, human Endothelial Differentiation Gene 1 (EDG1); assay: S1P1 Tango assay - 384 well format; format: cell-based; conditions: EDG1-bla/U2OS cells, agonist
Description: S1P1 Tango assay—384 Well Format
Recombinant EDG1-bla/U2OS cells (contain the human Endothelial Differentiation Gene 1 (EDG1) linked to a TEV protease site and a Gal4-VP16 transcription factor stably integrated into the Tango GPCR-bla U2OS parental cell line) were harvested from growth medium and passaged into assay medium (Invitrogen Freestyle Expression Medium). The cells were starved for 24 hours at 37° C., 5% CO2, harvested and resuspended in assay medium at a density of ˜200,000 cells/ml. All test compounds were dissolved in DMSO at a concentration of 10 mM and were prepared in 100% DMSO to provide 10 point dose response curves. Test compounds prepared by Bravo (Velocity11) were added to wells in columns 2-11 and 13-22; DMSO was added to wells in columns 12 and 23 as unstimulated controls and assay medium was added to wells in columns 1 and 24 as cell-free controls. An S1P1 agonist was added to wells in row 2, columns 2-11 as stimulated controls and test compounds were added to wells in row 2, columns 13-22 and rows 3-15, columns 2-11/13-22 (row 1 and 16 were empty and not used). Compounds in solution were added to the assay plate (Greiner 781090) using an Echo (Labcyte) dose-response program (50 nl/well). The unstimulated and cell-free controls were loaded with 50 nl/well pure DMSO to ensure that the DMSO concentration was constant across the plate for all assays.
50 μl of the cell suspension was added to each well in columns 2-23 of the plate (˜10,000 cells per well). 50 μl of assay medium was added to each well in the cell-free controls (columns 1 and 24). The cells were incubated overnight at 37° C./5% CO2.
10 μl of 6× substrate mixture (LiveBLAzer™-FRET B/G substrate (CCF4-AM) Cat #K1096 from Invitrogen, Inc.) was added to each well using Bravo and the plates incubated at room temperature for 2 h in the dark. The plate was finally read on EnVision using one excitation channel (409 nm) and two emission channels (460 nm and 530 nm).
The blue/green emission ratio (460 nm/530 nm) was calculated for each well, by dividing the background-subtracted Blue emission values by the background-subtracted Green emission values. The dose response curve is based on sigmoidal dose-response model. All ratio data was normalized based upon the maximum emission ratio of positive control and minimum emission ratio of negative control (DMSO) on each plate. The intrinsic activity (IA) of each compound would be the normalized percentage of its maximum response after curve fitting.

T1 sequence (P21453 whole entry, the tested form may be a part): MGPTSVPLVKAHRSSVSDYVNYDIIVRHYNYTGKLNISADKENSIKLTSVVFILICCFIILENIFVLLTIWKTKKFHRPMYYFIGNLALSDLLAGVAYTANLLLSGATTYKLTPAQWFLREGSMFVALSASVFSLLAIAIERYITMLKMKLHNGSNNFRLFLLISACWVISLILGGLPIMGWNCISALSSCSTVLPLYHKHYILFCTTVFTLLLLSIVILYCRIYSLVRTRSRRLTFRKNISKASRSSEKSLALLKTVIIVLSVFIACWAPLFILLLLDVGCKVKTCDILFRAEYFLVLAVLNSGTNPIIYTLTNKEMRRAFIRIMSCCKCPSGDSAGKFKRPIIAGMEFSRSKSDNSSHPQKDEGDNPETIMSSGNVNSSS

SMILES | EC50 [1] | EC50 [2]
Cc1c(C[C@@H](C)C(=O)O)cccc1-c1noc(-c2cnc(OC(C)C)c(Cl)c2)n1 [Example 3, (2R)-3-[3-(5-{5-chloro-6-[(1-methylethyl)oxy]-3-pyridinyl}-1,2,4-oxadiazol-3-yl)-2-methylphenyl]-2-methylpropanoic acid] | > 1000 nM | –
Cc1c(CCCC(=O)O)cccc1-c1noc(-c2cnc(OC(C)C)c(Cl)c2)n1 [Example 4, 4-[3-(5-{5-chloro-6-[(1-methylethyl)oxy]-3-pyridinyl}-1,2,4-oxadiazol-3-yl)-2-methylphenyl]butanoic acid] | > 1000 nM | –
CC(C)Oc1ccc(-c2nc(-c3ccnc(CCCC(=O)O)c3)no2)cc1C#N [Example 21, 4-[4-(5-{3-cyano-4-[(1-methylethyl)oxy]phenyl}-1,2,4-oxadiazol-3-yl)-2-pyridinyl]butanoic acid] | > 1000 nM | –
CCc1c(CNCCC(=O)O)cccc1-c1nsc(-c2ccc(OC(C)C)c(C#N)c2)n1 [Example 48, N-{[3-(5-{3-cyano-4-[(1-methylethyl)oxy]phenyl}-1,2,4-thiadiazol-3-yl)-2-ethylphenyl]methyl}-b-alanine] | – | ≤ 10 nM
CCc1c(CCN(C)CC(=O)O)cccc1-c1nsc(-c2ccc(OC(C)C)c(Cl)c2)n1 [Example 49, N-{2-[3-(5-{3-chloro-4-[(1-methylethyl)oxy]phenyl}-1,2,4-thiadiazol-3-yl)-2-ethylphenyl]ethyl}-N-methylglycine] | – | ≤ 1 nM
COc1c(CCCC(=O)O)cc(F)cc1-c1cnc(-c2ccc(OC(C)C)c(C#N)c2)s1 [Example 51, 4-[3-(2-{3-cyano-4-[(1-methylethyl)oxy]phenyl}-1,3-thiazol-5-yl)-5-fluoro-2-(methyloxy)phenyl]butanoic acid] | – | ≤ 10 nM
CCc1c(CCCC(=O)O)cccc1-c1cnc(-c2ccc(OC(C)C)c(Cl)c2)s1 [Example 52, 4-[3-(2-{3-chloro-4-[(1-methylethyl)oxy]phenyl}-1,3-thiazol-5-yl)-2-ethylphenyl]butanoic acid] | – | ≤ 10 nM
CCc1c(CN(C)CC(=O)O)cccc1-c1cnc(-c2ccc(OC(C)C)c(Cl)c2)s1 [Example 54, N-{[3-(2-{3-chloro-4-[(1-methylethyl)oxy]phenyl}-1,3-thiazol-5-yl)-2-ethylphenyl]methyl}-N-methylglycine] | – | ≤ 1000 nM
CCc1c(CN(C)CC(=O)O)cccc1-c1cnc(-c2ccc(OC(C)C)c(C#N)c2)s1 [Example 55, N-{[3-(2-{3-cyano-4-[(1-methylethyl)oxy]phenyl}-1,3-thiazol-5-yl)-2-ethylphenyl]methyl}-N-methylglycine] | – | ≤ 100 nM
CCc1c(CCN(C)CC(=O)O)cccc1-c1cnc(-c2ccc(OC(C)C)c(Cl)c2)s1 [Example 56, N-{2-[3-(2-{3-chloro-4-[(1-methylethyl)oxy]phenyl}-1,3-thiazol-5-yl)-2-ethylphenyl]ethyl}-N-methylglycine] | – | ≤ 10 nM

The remaining lines, values ahead:

EC50 [1] | EC50 [2] | SMILES
– | ≤ 10 nM | CCc1c(CCCC(=O)O)cccc1-c1cnc(-c2ccc(OC(C)C)c(C#N)c2)s1 [Example 50, 4-[3-(2-{3-cyano-4-[(1-methylethyl)oxy]phenyl}-1,3-thiazol-5-yl)-2-ethylphenyl]butanoic acid]
– | ≤ 10 nM | CCc1c(CCN(C)CC(=O)O)cccc1-c1cnc(-c2ccc(OC(C)C)c(C#N)c2)s1 [Example 53, N-{2-[3-(2-{3-cyano-4-[(1-methylethyl)oxy]phenyl}-1,3-thiazol-5-yl)-2-ethylphenyl]ethyl}-N-methylglycine]
– | ≤ 100 nM | CCc1c(CN(C)CCC(=O)O)cccc1-c1cnc(-c2ccc(OC(C)C)c(C#N)c2)s1 [Example 57, N-{[3-(2-{3-cyano-4-[(1-methylethyl)oxy]phenyl}-1,3-thiazol-5-yl)-2-ethylphenyl]methyl}-N-methyl-β-alanine]
– | ≤ 1000 nM | CCc1c(-c2cnc(-c3ccc(OC(C)C)c(C#N)c3)s2)ccnc1CCCC(=O)O [Example 58, 4-[4-(2-{3-cyano-4-[(1-methylethyl)oxy]phenyl}-1,3-thiazol-5-yl)-3-ethyl-2-pyridinyl]butanoic acid]
– | ≤ 1 nM | CCc1c(CCN(C)CCC(=O)O)cccc1-c1cnc(-c2ccc(OC(C)C)c(C#N)c2)s1 [Example 59, N-{2-[3-(2-{3-cyano-4-[(1-methylethyl)oxy]phenyl}-1,3-thiazol-5-yl)-2-ethylphenyl]ethyl}-N-methyl-b-alanine]
